Consider 25 molecules from patent US12545659B2, “IRAK degraders and uses thereof” (Kymera Therapeutics, Inc., priority 2019, dated 2026).

Tested on in the first data set: not given
Test: not given
Particulars: cn_pd bond; 13-membered ring; Pd2(dba)3/Xantphos/Cs2CO3; dioxane; 18.1 mM; 80.0 °C.
In turn, “12-((1R,4R)-4-(hydroxymethyl)cyclohexyl)-12H-5,10-dioxa-2-aza-1(5,6)-indazola-4(2,6)-pyridinacyclodecaphan-3-one” gave a ring closure, isolated yield of 55%.

The same data set, now with this note: the molecule shown is the open-chain precursor; cn_pd bond; 14-membered ring; BrettPhos Pd G3/Cs2CO3; DMA; 100.0 mM; 90.0 °C.
Molecule `NC(=O)c1cccc(OCCO[C@H]2CCN(c3cc4nn(C5CCC(CO)CC5)cc4cc3Br)C2)c1` (some centres unmarked) came in with a ring closure, isolated yield of 33%.

Still in this data set, the particulars now being: the molecule shown is the open-chain precursor; cn_pd bond; 14-membered ring; BrettPhos Pd G4/Cs2CO3; DMA; 9.4 mM; 80.0 °C.
The molecule `NC(=O)c1cccc(OCCCCCOc2cc3nn(C4CCC(CO)CC4)cc3cc2Br)n1` (centres unmarked) gave a ring closure, isolated yield of 39%.

In a further data set the target is T1, IRAK4 (Homo sapiens, UniProt Q9NWZ3).
T1 construct: endogenous in cells; host or cells: OCI-LY10
T1 sequence (Q9NWZ3 1-460): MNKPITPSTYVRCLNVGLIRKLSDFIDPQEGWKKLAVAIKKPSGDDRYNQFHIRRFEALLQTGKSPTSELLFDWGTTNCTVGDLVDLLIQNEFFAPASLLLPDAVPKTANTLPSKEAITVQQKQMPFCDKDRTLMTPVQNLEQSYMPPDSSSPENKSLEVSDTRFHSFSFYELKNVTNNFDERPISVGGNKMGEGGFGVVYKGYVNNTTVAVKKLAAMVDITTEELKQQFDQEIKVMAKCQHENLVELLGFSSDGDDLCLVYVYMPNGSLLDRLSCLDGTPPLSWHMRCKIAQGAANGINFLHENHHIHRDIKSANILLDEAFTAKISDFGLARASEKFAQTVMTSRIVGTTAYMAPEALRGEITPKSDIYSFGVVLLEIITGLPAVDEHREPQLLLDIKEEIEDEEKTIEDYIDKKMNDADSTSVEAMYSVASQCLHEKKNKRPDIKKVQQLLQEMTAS
Description: IRAK4 MSD Degradation in OCI-LY10. Particulars: OCI-LY10 cells, 4 hrs incubation, read-out: IRAK4 degradation in OCI-LY10 at 4 hrs: DC50. The format is cell-based. Summed up:
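OCI-LY10 cells treated with 8-dose, 1:3 dilution series (top final 1 to 10 μM) for 4 to 24 h at 37 °C, 5% CO2. Lysate IRAK4 quantified by MSD sandwich immunoassay (mouse 2H9 capture, rabbit Y279 detection, SULFO-TAG anti-rabbit); DC50 from three-parameter logistic fit.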
As for `COc1cc2nn([C@H]3CC[C@H](CN(C)C4CCN(c5cccc6c5n(C)c(=O)n6C5CCC(=O)NC5=O)CC4)CC3)cc2cc1NC(=O)c1cccc(C(F)(F)F)n1` (some centres unmarked) [I-247, N-[2-[4-[[[1-[1-(2,6-dioxo-3-piperidyl)-3-methyl-2-oxo-benzimidazol-4-yl]-4-piperidyl]-methyl-amino]methyl]cyclohexyl]-6-methoxy-indazol-5-yl]-6-(trifluoromethyl)pyridine-2-carboxamide], the DC50 was under 50 nM.
For `Cn1c(=O)n(C2CCC(=O)NC2=O)c2cccc(C3CCN(C[C@H]4CC[C@H](n5cc6cc(NC(=O)c7cnccn7)c(C(C)(C)O)cc6n5)CC4)CC3)c21` (some centres unmarked) [I-320], the DC50 is under 50 nM.
As to `CN(C[C@H]1CC[C@H](n2cc3cc(NC(=O)c4cccc(C5CC5)n4)c(C(C)(C)O)cc3n2)CC1)C1CCN(Cc2cccc3c2n(C)c(=O)n3C2CCC(=O)NC2=O)CC1` (some centres unmarked) [I-322], the DC50 is under 50 nM.
Regarding `COc1cc2nn([C@H]3CC[C@H](CN4CCC(c5cccc6c5n(C)c(=O)n6C5CCC(=O)NC5=O)CC4)CC3)cc2cc1NC(=O)c1ccncn1` (some centres unmarked) [I-324], the DC50 is under 50 nM.
Same read-out and setting: in the case of `COc1cc2nn([C@H]3CC[C@H](CN4CCC(c5cccc6c5n(C)c(=O)n6C5CCC(=O)NC5=O)CC4)CC3)cc2cc1NC(=O)c1coc(C)n1` (some centres unmarked) [I-325] it was under 50 nM.
In the case of `COc1cc2nn([C@H]3CC[C@H](CN4CCC(c5cccc6c5n(C)c(=O)n6C5CCC(=O)NC5=O)CC4)CC3)cc2cc1NC(=O)c1cnccn1` (some centres unmarked) [I-327], the DC50 is under 50 nM.
In the case of `COc1cc2nn([C@H]3CC[C@H](CN4CCC(c5cccc6c5n(C)c(=O)n6C5CCC(=O)NC5=O)CC4)CC3)cc2cc1NC(=O)c1cccc(C)n1` (some centres unmarked) [I-328], the DC50 is under 50 nM.
On the same count and under the same terms, in the case of `COc1cc2nn([C@H]3CC[C@H](CN(C)C4CCN(c5cccc6c5n(C)c(=O)n6C5CCC(=O)NC5=O)CC4)CC3)cc2cc1NC(=O)c1ccccn1` (some centres unmarked) [I-329] it was under 50 nM.

Still in this data set, the particulars now being: OCI-LY10 cells, 24 hrs incubation, read-out: IRAK4 degradation in OCI-LY10 at 24 hrs: DC50.
Turning to `COc1cc2nn([C@H]3CC[C@H](CN4CCC(O[C@H]5CC[C@H](CNc6cccc7c6C(=O)N(C6CCC(=O)NC6=O)C7=O)CC5)CC4)CC3)cc2cc1NC(=O)c1cccc(C(C)(C)F)n1` (some centres unmarked) [I-311], the DC50 was 50 to 100 nM.
In the case of `CC(C)(O)c1cc2nn([C@H]3CC[C@H](CN4CCC(O[C@H]5C[C@H](Nc6cccc7c6C(=O)N(C6CCC(=O)NC6=O)C7=O)C5)CC4)CC3)cc2cc1NC(=O)c1cccc(C(F)(F)F)n1` (some centres unmarked) [I-312], the DC50 is under 50 nM.
Take `CC(C)(O)c1cc2nn([C@H]3CC[C@H](CN4CCC5(CC4)CC(Nc4cccc6c4C(=O)N(C4CCC(=O)NC4=O)C6=O)C5)CC3)cc2cc1NC(=O)c1cccc(C(F)(F)F)n1` (some centres unmarked) [I-313]: the DC50 was under 50 nM.
As for `O=C1CCC(N2C(=O)c3cccc(NCCC4CC5(CCN(C[C@H]6CC[C@H](c7nc8cc(N9CCC(CO)CC9)c(NC(=O)c9cccc(C(F)(F)F)n9)cc8o7)CC6)CC5)C4)c3C2=O)C(=O)N1` (some centres unmarked) [I-314], the DC50 lay within 100 to 500 nM.
Still for that read-out and setting: in the case of `COc1c(NC(=O)c2cccc(C(C)(C)F)n2)cc2cn([C@H]3CC[C@H](CN4CC5(CC(CCNc6cccc7c6C(=O)N(C6CCC(=O)NC6=O)C7=O)C5)C4)CC3)nc2c1C` (some centres unmarked) [I-315] it was 50 to 100 nM.
For `COc1cc2nn([C@H]3CC[C@H](CN4CCC5(CC4)CC(CNc4cccc6c4C(=O)N(C4CCC(=O)NC4=O)C6=O)C5)CC3)cc2cc1NC(=O)c1coc(-c2ccnc(C)c2)n1` (some centres unmarked) [I-316], the DC50 lay in the range of 50 to 100 nM.
Consider `COc1cc2nn([C@H]3CC[C@H](CN(C)[C@H]4CC[C@@]5(CC4)C[C@@H](CNc4cccc6c4C(=O)N(C4CCC(=O)NC4=O)C6=O)C5)CC3)cc2cc1NC(=O)c1cccc(C(F)(F)F)n1` (some centres unmarked) [I-317], for which the DC50 lay within 50 to 100 nM.
On the same count and under the same terms, in the case of `COc1cc2nn([C@H]3CC[C@H](CN(C)[C@H]4CC[C@H](Nc5cccc6c5C(=O)N(C5CCC(=O)NC5=O)C6=O)CC4)CC3)cc2cc1NC(=O)c1cccc(S(F)(F)(F)(F)F)n1` (some centres unmarked) [I-318] it was 50 to 100 nM; in that of `C[C@@]1(CN2CCC3(CC2)CC(CCNc2cccc4c2C(=O)N(C2CCC(=O)NC2=O)C4=O)C3)Cc2cc(NC(=O)c3cccc(C(F)(F)F)n3)c(N3CCOCC3)cc2O1` (stereo partly drawn) [I-319, N-((2S)-2-((2-(2-((2-(2,6-dioxopiperidin-3-yl)-1,3-dioxoisoindolin-4-yl)amino)ethyl)-7-azaspiro[3.5]nonan-7-yl)methyl)-2-methyl-6-morpholino-2,3-dihydrobenzofuran-5-yl)-6-(trifluoromethyl)picolinamide], 500 to 1000 nM; in that of `COc1cc2nc([C@H]3CC[C@H](CN4CCC5(CC4)CC(Nc4cccc6c4C(=O)N(C4CCC(=O)NC4=O)C6=O)C5)CC3)oc2cc1NC(=O)c1cnn2cccnc12` (some centres unmarked) [I-321], under 50 nM.
Still for that read-out and setting: with `C[C@]1(CN2CCC3(CC2)CC(CCNc2cccc4c2C(=O)N(C2CCC(=O)NC2=O)C4=O)C3)Cc2cc(NC(=O)c3cccc(C(F)(F)F)n3)c(N3CCOCC3)cc2O1` (stereo partly drawn) [I-326, N-[(2R)-2-[[2-[2-[[2-(2,6-dioxo-3-piperidyl)-1,3-dioxo-isoindolin-4-yl]amino]ethyl]-7-azaspiro[3.5]nonan-7-yl]methyl]-2-methyl-6-morpholino-3H-benzofuran-5-yl]-6-(trifluoromethyl)pyridine-2-carboxamide] the figure was 500 to 1000 nM; with `CN(CCCO[C@H]1C[C@H](Nc2cccc3c2C(=O)N(C2CCC(=O)NC2=O)C3=O)C1)C[C@]1(C)Cc2cc(NC(=O)c3cccc(C(F)(F)F)n3)c(N3CCOCC3)cc2O1` (stereo partly drawn) [I-330, N-[(2S)-2-[[3-[3-[[2-(2,6-dioxo-3-piperidyl)-1,3-dioxo-isoindolin-4-yl]amino]cyclobutoxy]propyl-methyl-amino]methyl]-2-methyl-6-morpholino-3H-benzofuran-5-yl]-6-(trifluoromethyl)pyridine-2-carboxamide], 500 to 1000 nM.
As for `COc1cc2c(cc1NC(=O)c1cccc(C(F)(F)F)n1)CN([C@H]1CC[C@H](CN3CC4(CC(CCNc5cccc6c5C(=O)N(C5CCC(=O)NC5=O)C6=O)C4)C3)CC1)C2=O` (some centres unmarked) [I-331], the DC50 was in the range of 50 to 100 nM.
Consider `COc1cc2nn([C@H]3CC[C@H](CN4CC5(CC([C@H](C)CNc6cccc7c6C(=O)N(C6CCC(=O)NC6=O)C7=O)C5)C4)CC3)cc2cc1NC(=O)c1cccc(C(F)(F)F)n1` (some centres unmarked) [I-332], for which the DC50 is under 50 nM.

In a further data set the test system is OCI-LY10 cells. Description: CTG Cell Viability Assay - OCI-LY10. Format: cell-based. Particulars: Homo sapiens, 96 h; OCI-LY10 cells, 4 days, CellTiter-Glo; read-out: CTG Cell Viability Assay - OCI-LY10: IC50. The method, then: Compound-mediated viability effect on OCI-LY10 or SUDHL-2 was quantitatively determined using the CellTiter-Glo® Luminescent Cell Viability Assay kit from Promega (Catalog number G7570) following manufacturer's recommended procedures. Briefly, OCI-LY10 or SUDHL-2 cells were seeded into 384 well plates (Grenier Bio-One, Catalog number 781080) with a density of 10,000 cells per well. Compounds were then added to the assay plate with final top concentration of 10 M and 1:3 dilution series with total of 9 doses. The final DMSO concentration was normalized to 0.2%. The assay plates were incubated at 37° C. for 4 days under 5% CO2. Then the assay plate was equilibrated at room temperature for 10 minutes. To determine cell viability, L CellTiter Glo reagent was added to each well and the assay plate was centrifuged at 1000 rpm for 30 second, incubated at room temperature for 10 min, and analyzed by detecting the luminescence using a multimode plate reader (EnVision 2105, PerkinElmer). The data was then analyzed by software Prism 7.0 from GraphPad and the dose response curves were fit using a three-parameter logistic equation to calculate IC50.
On the technique in general: Cellular ATP, detected with luciferase, serves as a proxy for viable cell number.
With `COc1cc2nn([C@H]3CC[C@H](CN(C)C4CCN(c5cccc6c5n(C)c(=O)n6C5CCC(=O)NC5=O)CC4)CC3)cc2cc1NC(=O)c1cccc(C(F)(F)F)n1` (some centres unmarked) [I-247, N-[2-[4-[[[1-[1-(2,6-dioxo-3-piperidyl)-3-methyl-2-oxo-benzimidazol-4-yl]-4-piperidyl]-methyl-amino]methyl]cyclohexyl]-6-methoxy-indazol-5-yl]-6-(trifluoromethyl)pyridine-2-carboxamide], the IC50 is over 1000 nM.

The term DC50 denotes the concentration at which degradation of the target reaches its halfway point. A word on the IC50: it is the concentration that gives 50% inhibition.
